Measured values from article PMC6409085, “Three odorant-binding proteins are involved in the behavioral response of Sogatella furcifera to rice plant volatiles” (PeerJ, 2019).
Where “and” joins values, the source holds several entries; their conditions need not be identical. Equal values may be shown once.

Columns and labels:
Test in all cases: biochemical
Type in all cases: binding
SfurOBP1 = SfurOBP1 (Sogatella furcifera, UniProt V5T8N5); conditions: for Fluorescence competitive binding assay, fluorescence intensity: OBP1, three replicate columns
Procedure, shortened: (§1)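 K1-NPN came from titrating 2.0 µM protein (50 mM Tris-HCl, pH 7.4) with 1-NPN. Odorants at 2-20 µM then competed against 2.0 µM protein plus 2.0 µM 1-NPN for 2 min, with excitation at 337 nm and emission recorded over 390-490 nm. IC50 values were converted to Ki via Ki = IC50/(1 + [1-NPN]/K1-NPN).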

SfurOBP2 = SfurOBP2 (Sogatella furcifera, UniProt V5T759)
Procedure, shortened: as §1

SfurOBP3 = SfurOBP3 (Sogatella furcifera, UniProt V5T818); conditions: for Fluorescence competitive binding assay, fluorescence intensity: OBP3, three replicate columns
Procedure, shortened: as §1

SfurOBP11 = SfurOBP11 (Sogatella furcifera, UniProt V5T6E3)
Procedure, shortened: as §1

SfurOBP3, sequence (V5T818 entry or part of it): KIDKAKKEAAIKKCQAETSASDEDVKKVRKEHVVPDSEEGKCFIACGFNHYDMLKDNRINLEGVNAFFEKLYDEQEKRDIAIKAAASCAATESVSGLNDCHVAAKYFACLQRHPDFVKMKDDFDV
SfurOBP1, sequence (V5T8N5 entry or part of it): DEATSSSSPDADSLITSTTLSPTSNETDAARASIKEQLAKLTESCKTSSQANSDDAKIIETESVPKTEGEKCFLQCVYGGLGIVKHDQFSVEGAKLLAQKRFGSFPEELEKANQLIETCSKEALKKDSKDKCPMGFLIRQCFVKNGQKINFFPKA
SfurOBP11, sequence (V5T6E3 entry or part of it): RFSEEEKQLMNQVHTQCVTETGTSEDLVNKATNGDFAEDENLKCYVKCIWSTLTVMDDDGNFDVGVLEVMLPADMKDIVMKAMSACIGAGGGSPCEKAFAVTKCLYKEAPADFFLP
SfurOBP2, sequence (V5T759 entry or part of it): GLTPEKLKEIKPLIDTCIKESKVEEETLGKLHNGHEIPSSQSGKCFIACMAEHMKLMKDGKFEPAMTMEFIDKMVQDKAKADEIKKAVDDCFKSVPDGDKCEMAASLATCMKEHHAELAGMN

Fluorescence competitive binding assay, fluorescence intensity (SfurOBP1; ligand concentration 2 (μM)): 9199 and 7453 and 7122 | Fluorescence competitive binding assay, fluorescence intensity (SfurOBP1; ligand concentration 4 (μM)): 8077 and 8108 and 9442 | Fluorescence competitive binding assay, fluorescence intensity (SfurOBP1; ligand concentration 6 (μM)): 8157 and 9511 and 12800 | Fluorescence competitive binding assay, fluorescence intensity (SfurOBP1; ligand concentration 8 (μM)): 8086 and 8235 and 10013 | Fluorescence competitive binding assay, fluorescence intensity (SfurOBP1; ligand concentration 10 (μM)): 9302 and 9657 and 9738 | Fluorescence competitive binding assay, fluorescence intensity (SfurOBP1; ligand concentration 12 (μM)): 8567 and 10513 and 8676 | Fluorescence competitive binding assay, fluorescence intensity (SfurOBP1; ligand concentration 14 (μM)): 10345 and 9766 and 9261 | Fluorescence competitive binding assay, fluorescence intensity (SfurOBP1; ligand concentration 16 (μM)): 9156 and 9816 and 8326 | Fluorescence competitive binding assay, fluorescence intensity (SfurOBP1; ligand concentration 18 (μM)): 11251 and 11486 and 11859 | Fluorescence competitive binding assay, fluorescence intensity (SfurOBP1; ligand concentration 20 (μM)): 12749 and 11193 and 9024 | IC50 (SfurOBP1; SfurOBP1, protein and 1-NPN both 2.0 µM, competitor 2-20 µM, read-out: IC50): > 20 µM | IC50 (SfurOBP2; SfurOBP2, protein and 1-NPN both 2.0 µM, competitor 2-20 µM, read-out: IC50): > 20 µM | Fluorescence competitive binding assay, OBP2 (raw fluorescence reading) (SfurOBP2; ligand concentration 2 (unit not given), replicate column 1 of 3): 22088 | Fluorescence competitive binding assay, OBP2 (raw fluorescence reading) (SfurOBP2; ligand concentration 2 (unit not given), replicate column 2 of 3): 18683 | Fluorescence competitive binding assay, OBP2 (raw fluorescence reading) (SfurOBP2; ligand concentration 2 (unit not given), replicate column 3 of 3): 19796 | Fluorescence competitive binding assay, OBP2 (raw fluorescence reading) (SfurOBP2; ligand concentration 4 (unit not given), replicate column 1 of 3): 22227 | Fluorescence competitive binding assay, OBP2 (raw fluorescence reading) (SfurOBP2; ligand concentration 4 (unit not given), replicate column 2 of 3): 21034 | Fluorescence competitive binding assay, OBP2 (raw fluorescence reading) (SfurOBP2; ligand concentration 4 (unit not given), replicate column 3 of 3): 22529 | Fluorescence competitive binding assay, OBP2 (raw fluorescence reading) (SfurOBP2; ligand concentration 6 (unit not given), replicate column 1 of 3): 22620 | Fluorescence competitive binding assay, OBP2 (raw fluorescence reading) (SfurOBP2; ligand concentration 6 (unit not given), replicate column 2 of 3): 20809 | Fluorescence competitive binding assay, OBP2 (raw fluorescence reading) (SfurOBP2; ligand concentration 6 (unit not given), replicate column 3 of 3): 24859 | Fluorescence competitive binding assay, OBP2 (raw fluorescence reading) (SfurOBP2; ligand concentration 8 (unit not given), replicate column 1 of 3): 22235 | Fluorescence competitive binding assay, OBP2 (raw fluorescence reading) (SfurOBP2; ligand concentration 8 (unit not given), replicate column 2 of 3): 21135 | Fluorescence competitive binding assay, OBP2 (raw fluorescence reading) (SfurOBP2; ligand concentration 8 (unit not given), replicate column 3 of 3): 22654 | Fluorescence competitive binding assay, OBP2 (raw fluorescence reading) (SfurOBP2; ligand concentration 10 (unit not given), replicate column 1 of 3): 23550 | Fluorescence competitive binding assay, OBP2 (raw fluorescence reading) (SfurOBP2; ligand concentration 10 (unit not given), replicate column 2 of 3): 22474 | Fluorescence competitive binding assay, OBP2 (raw fluorescence reading) (SfurOBP2; ligand concentration 10 (unit not given), replicate column 3 of 3): 20461 | Fluorescence competitive binding assay, OBP2 (raw fluorescence reading) (SfurOBP2; ligand concentration 12 (unit not given), replicate column 1 of 3): 24276 | Fluorescence competitive binding assay, OBP2 (raw fluorescence reading) (SfurOBP2; ligand concentration 12 (unit not given), replicate column 2 of 3): 21111 | Fluorescence competitive binding assay, OBP2 (raw fluorescence reading) (SfurOBP2; ligand concentration 12 (unit not given), replicate column 3 of 3): 21373 | Fluorescence competitive binding assay, OBP2 (raw fluorescence reading) (SfurOBP2; ligand concentration 14 (unit not given), replicate column 1 of 3): 23028 | Fluorescence competitive binding assay, OBP2 (raw fluorescence reading) (SfurOBP2; ligand concentration 14 (unit not given), replicate column 2 of 3): 21327 | Fluorescence competitive binding assay, OBP2 (raw fluorescence reading) (SfurOBP2; ligand concentration 14 (unit not given), replicate column 3 of 3): 21239 | Fluorescence competitive binding assay, OBP2 (raw fluorescence reading) (SfurOBP2; ligand concentration 16 (unit not given), replicate column 1 of 3): 18660 | Fluorescence competitive binding assay, OBP2 (raw fluorescence reading) (SfurOBP2; ligand concentration 16 (unit not given), replicate column 2 of 3): 19708 | Fluorescence competitive binding assay, OBP2 (raw fluorescence reading) (SfurOBP2; ligand concentration 16 (unit not given), replicate column 3 of 3): 19350 | Fluorescence competitive binding assay, OBP2 (raw fluorescence reading) (SfurOBP2; ligand concentration 18 (unit not given), replicate column 1 of 3): 24040 | Fluorescence competitive binding assay, OBP2 (raw fluorescence reading) (SfurOBP2; ligand concentration 18 (unit not given), replicate column 2 of 3): 25474 | Fluorescence competitive binding assay, OBP2 (raw fluorescence reading) (SfurOBP2; ligand concentration 18 (unit not given), replicate column 3 of 3): 26650 | Fluorescence competitive binding assay, OBP2 (raw fluorescence reading) (SfurOBP2; ligand concentration 20 (unit not given), replicate column 1 of 3): 24631 | Fluorescence competitive binding assay, OBP2 (raw fluorescence reading) (SfurOBP2; ligand concentration 20 (unit not given), replicate column 2 of 3): 21130 | Fluorescence competitive binding assay, OBP2 (raw fluorescence reading) (SfurOBP2; ligand concentration 20 (unit not given), replicate column 3 of 3): 21384 | Fluorescence competitive binding assay, fluorescence intensity (SfurOBP3; ligand concentration 2): 44756 and 46756 and 45756 | Fluorescence competitive binding assay, fluorescence intensity (SfurOBP3; ligand concentration 4): 44765 and 44970 and 45189 | Fluorescence competitive binding assay, fluorescence intensity (SfurOBP3; ligand concentration 6): 56655 and 51780 and 54218 | Fluorescence competitive binding assay, fluorescence intensity (SfurOBP3; ligand concentration 8): 56206 and 55200 and 54212 | Fluorescence competitive binding assay, fluorescence intensity (SfurOBP3; ligand concentration 10): 105189 and 108079 and 109909 | Fluorescence competitive binding assay, fluorescence intensity (SfurOBP3; ligand concentration 12): 109051 and 110510 and 104814 | Fluorescence competitive binding assay, fluorescence intensity (SfurOBP3; ligand concentration 14): 104242 and 103301 and 109995 | Fluorescence competitive binding assay, fluorescence intensity (SfurOBP3; ligand concentration 16): 96286 and 114978 and 85581 | Fluorescence competitive binding assay, fluorescence intensity (SfurOBP3; ligand concentration 18): 113407 and 123942 and 62401 | Fluorescence competitive binding assay, fluorescence intensity (SfurOBP3; ligand concentration 20): 54560 and 56227 and 56504 | IC50 (SfurOBP3; SfurOBP3, protein and 1-NPN both 2.0 µM, competitor 2-20 µM, read-out: IC50): > 20 µM | IC50 (SfurOBP11; SfurOBP11, protein and 1-NPN both 2.0 µM, competitor 2-20 µM, read-out: IC50): > 20 µM | Fluorescence intensity, fluorescence competitive binding assay, OBP11 (SfurOBP11; ligand concentration 2, replicate 1): 31124 | Fluorescence intensity, fluorescence competitive binding assay, OBP11 (SfurOBP11; ligand concentration 2, replicate 2): 31165 | Fluorescence intensity, fluorescence competitive binding assay, OBP11 (SfurOBP11; ligand concentration 2, replicate 3): 31082 | Fluorescence intensity, fluorescence competitive binding assay, OBP11 (SfurOBP11; ligand concentration 4, replicate 1): 31010 | Fluorescence intensity, fluorescence competitive binding assay, OBP11 (SfurOBP11; ligand concentration 4, replicate 2): 31130 | Fluorescence intensity, fluorescence competitive binding assay, OBP11 (SfurOBP11; ligand concentration 4, replicate 3): 30899 | Fluorescence intensity, fluorescence competitive binding assay, OBP11 (SfurOBP11; ligand concentration 6, replicate 1): 26414 | Fluorescence intensity, fluorescence competitive binding assay, OBP11 (SfurOBP11; ligand concentration 6, replicate 2): 32905 | Fluorescence intensity, fluorescence competitive binding assay, OBP11 (SfurOBP11; ligand concentration 6, replicate 3): 29894 | Fluorescence intensity, fluorescence competitive binding assay, OBP11 (SfurOBP11; ligand concentration 8, replicate 1): 27729 | Fluorescence intensity, fluorescence competitive binding assay, OBP11 (SfurOBP11; ligand concentration 8, replicate 2): 29971 | Fluorescence intensity, fluorescence competitive binding assay, OBP11 (SfurOBP11; ligand concentration 8, replicate 3): 31279 | Fluorescence intensity, fluorescence competitive binding assay, OBP11 (SfurOBP11; ligand concentration 10, replicate 1): 29221 | Fluorescence intensity, fluorescence competitive binding assay, OBP11 (SfurOBP11; ligand concentration 10, replicate 2): 29436 | Fluorescence intensity, fluorescence competitive binding assay, OBP11 (SfurOBP11; ligand concentration 10, replicate 3): 31039 | Fluorescence intensity, fluorescence competitive binding assay, OBP11 (SfurOBP11; ligand concentration 12, replicate 1): 26981 | Fluorescence intensity, fluorescence competitive binding assay, OBP11 (SfurOBP11; ligand concentration 12, replicate 2): 32241 | Fluorescence intensity, fluorescence competitive binding assay, OBP11 (SfurOBP11; ligand concentration 12, replicate 3): 28868 | Fluorescence intensity, fluorescence competitive binding assay, OBP11 (SfurOBP11; ligand concentration 14, replicate 1): 27521 | Fluorescence intensity, fluorescence competitive binding assay, OBP11 (SfurOBP11; ligand concentration 14, replicate 2): 30203 | Fluorescence intensity, fluorescence competitive binding assay, OBP11 (SfurOBP11; ligand concentration 14, replicate 3): 30415 | Fluorescence intensity, fluorescence competitive binding assay, OBP11 (SfurOBP11; ligand concentration 16, replicate 1): 28709 | Fluorescence intensity, fluorescence competitive binding assay, OBP11 (SfurOBP11; ligand concentration 16, replicate 2): 28254 | Fluorescence intensity, fluorescence competitive binding assay, OBP11 (SfurOBP11; ligand concentration 16, replicate 3): 29164 | Fluorescence intensity, fluorescence competitive binding assay, OBP11 (SfurOBP11; ligand concentration 18, replicate 1): 29699 | Fluorescence intensity, fluorescence competitive binding assay, OBP11 (SfurOBP11; ligand concentration 18, replicate 2): 28164 | Fluorescence intensity, fluorescence competitive binding assay, OBP11 (SfurOBP11; ligand concentration 18, replicate 3): 26628 | Fluorescence intensity, fluorescence competitive binding assay, OBP11 (SfurOBP11; ligand concentration 20, replicate 1): 26046 | Fluorescence intensity, fluorescence competitive binding assay, OBP11 (SfurOBP11; ligand concentration 20, replicate 2): 24149 | Fluorescence intensity, fluorescence competitive binding assay, OBP11 (SfurOBP11; ligand concentration 20, replicate 3): 23426
SMILES: CCCCCCCCCCCCCCCCCC [n-octadecane]
